Test results as given in paper PMC3434256 (Journal of the American Chemical Society, 2012).
Several values for one entry are separate records, joined by “and”; a condition that tells them apart may be missing. Equal values may be shown once. Read-outs that look alike come from different tables or passages of the source. Marks after values point to notes of the source that are not given here. Blank lines part the entries; values can stand above or below the molecule they belong to.

Assays:
[1] = Nonenzymatic C-6 deuterium exchange catalyzed by deuterioxide ion in D2O; settings: for kDO, second-order rate constant for deuterioxide-ion-catalyzed deuterium exchange at C-6: D2O; for kDO, second-order rate constant for deuterioxide-ion-catalyzed deuterium exchange at C-6 / kHO, second-order rate constant for proton transfer from C-6 to hydroxide ion: 25 °C; for kHO, second-order rate constant for proton transfer from C-6 to hydroxide ion: H2O, calculated from kDO using kDO/kHO = 2.4; for (Keq)aq, equilibrium constant for proton transfer from C-6 to a primary amine base of pKRNH3 = 7 in water: eq 12, pKCH of model nucleosides uridine and 5-fluorouridine
ScOMPDC [2] = settings: cited from earlier work; for Kd: read-out: (Kd)obsd, observed affinity of ScOMPDC, pH 7.2, H2O
[3] = cited from earlier work
[4] = target: T1, yeast orotidine 5′-monophosphate decarboxylase (ScOMPDC) (Saccharomyces cerevisiae, UniProt P03962, A160S/C155S/N267D/S2H); settings: for kex, turnover number for deuterium exchange into enzyme-bound substrate / kex/Kd, second-order rate constant for enzyme-catalyzed deuterium exchange / (kex)max, intrinsic first-order rate constant (turnover number) for deuterium exchange into saturating substrate bound to the deprotonated enzyme: I = 0.1 (NaCl); for kex/Kd, second-order rate constant for enzyme-catalyzed deuterium exchange: ratio of kex and Kd; for free energy of binding to form the Michaelis complex: deprotonated enzyme; for (Keq)enz, equilibrium constant for proton transfer from C-6 of bound nucleotide to ScOMPDC: eq 11, krot = 10^7 s^−1; for Kd′/Kd, ratio of dissociation constants from protonated and deprotonated enzyme: from pKE - pKES; for stabilization of enzyme-bound vinyl carbanion relative to bound nucleotide: lower limit; for (kex)max, intrinsic first-order rate constant (turnover number) for deuterium exchange into saturating substrate bound to the deprotonated enzyme: pD-rate profile of kex fit to eq 7, D2O, 25 °C
[5] = pKa of the phosphoryl group by titration; type: physicochemical; settings: D2O, I = 0.1, estimated from UMP pKa in H2O plus 0.5 unit
[6] = target: T1, yeast orotidine 5′-monophosphate decarboxylase (ScOMPDC); assay: biochemical
[7] = pKa of the N-3 hydron, spectrophotometric; type: physicochemical
[8] = titration, H2O, 25 °C, I = 0.1; cited from earlier work
[9] = aqueous solution; cited from earlier work
ScOMPDC [10] = settings: pH 7.1, 25 °C; cited from earlier work

T1 sequence (P03962 whole entry S2H/C155S/A160S/N267D): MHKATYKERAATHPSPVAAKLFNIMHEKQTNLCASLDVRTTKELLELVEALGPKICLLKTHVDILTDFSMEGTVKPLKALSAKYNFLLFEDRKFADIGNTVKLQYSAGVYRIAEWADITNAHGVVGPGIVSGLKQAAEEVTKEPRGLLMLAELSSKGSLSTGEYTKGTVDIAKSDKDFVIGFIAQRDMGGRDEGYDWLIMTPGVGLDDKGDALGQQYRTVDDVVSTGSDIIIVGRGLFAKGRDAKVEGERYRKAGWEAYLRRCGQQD

kDO, second-order rate constant for deuterioxide-ion-catalyzed deuterium exchange at C-6 [1]: 0.043 M⁻¹ s⁻¹ | kHO, second-order rate constant for proton transfer from C-6 to hydroxide ion [1]: 0.018 M⁻¹ s⁻¹
Structure (SMILES): Cn1cc(F)c(=O)n(C)c1=O

Structure (SMILES): O=c1ccn([C@H]2C[C@H](O)[C@@H](COP(=O)(O)O)O2)c(=O)[nH]1 [2′-deoxyuridine 5′-monophosphate]
Kd (ScOMPDC [2]): 170 µM

kDO, second-order rate constant for deuterioxide-ion-catalyzed deuterium exchange at C-6 [1]: 6.8e-05 M⁻¹ s⁻¹ | kHO, second-order rate constant for proton transfer from C-6 to hydroxide ion [1]: 2.8e-05 M⁻¹ s⁻¹
Structure (SMILES): O=c1[nH]c(=O)n(C2OC(CO)C(O)C2O)cc1F (stereo not drawn) [5-Fluorouridine N-3 Anion, 5-fluorouridine N-3 anion]

kDO, second-order rate constant for deuterioxide-ion-catalyzed deuterium exchange at C-6 [1]: 1.7 M⁻¹ s⁻¹ | kHO, second-order rate constant for proton transfer from C-6 to hydroxide ion [1]: 0.71 M⁻¹ s⁻¹ | ko = kHO[HO^−], observed rate constant for C-6 deprotonation by hydroxide ion ([1]; water, pH 7.1): 9e-08 s⁻¹
Structure (SMILES): O=c1[nH]c(=O)n([C@@H]2O[C@H](CO)[C@@H](O)[C@H]2O)cc1F [5-Fluorouridine, 5-fluorouridine]

Structure (SMILES): O=c1[nH]c(=O)n([C@H]2C[C@H](O)[C@@H](COP(=O)(O)O)O2)cc1F [5-fluoro-2′-deoxyuridine 5′-monophosphate]
pKa of the N-3 proton (pKNH) ([3]; H2O, 25 °C, I = 0.1): 7.90 | Kd (ScOMPDC [2]): 250 µM

Structure (SMILES): O=c1[nH]c(=O)n([C@H]2C[C@H](O)[C@@H](CO)O2)cc1F [5-fluoro-2′-deoxyuridine]
pKa of the N-3 proton ([3]; H2O, 25 °C, I = 0.1): 7.67

Structure (SMILES): O=c1cnn([C@@H]2O[C@H](COP(=O)(O)O)[C@@H](O)[C@H]2O)c(=O)[nH]1 [6-aza-UMP, 6-azauridine 5′-monophosphate]
deuterium exchange into UMP (2 mM) in the presence of inhibitor ([4]; 2 mM 6-aza-UMP, 260 μM ScOMPDC, 2 days, pD 9.3, 25 °C): no detectable deuterium exchange | Ki (ScOMPDC [2]; pH 7.2, competitive inhibitor): 93 nM

Structure (SMILES): O=c1[nH]c(=O)n([C@@H]2O[C@H](COP(=O)(O)O)[C@@H](O)[C@H]2O)cc1F [F-UMP, 5-fluorouridine 5′-monophosphate]
decrease in pKa of the side chain of Lys-93 upon binding (pKE - pKES) [4]: 1.4 unit | transition state stabilization for deuterium exchange [4]: 14 kcal/mol | kex, turnover number for deuterium exchange into enzyme-bound substrate ([4]; D2O, pD 6.45, 25 °C, fit to eq 5): 0.00818 s⁻¹ | kex/Kd, second-order rate constant for enzyme-catalyzed deuterium exchange ([4]; D2O, pD 6.45, 25 °C): 8.3 M⁻¹ s⁻¹ | kex, turnover number for deuterium exchange into enzyme-bound substrate ([4]; D2O, pD 7.03, 25 °C, fit to eq 5): 0.0169 s⁻¹ | kex/Kd, second-order rate constant for enzyme-catalyzed deuterium exchange ([4]; D2O, pD 7.03, 25 °C): 33 M⁻¹ s⁻¹ | kex, turnover number for deuterium exchange into enzyme-bound substrate ([4]; D2O, pD 7.37, 25 °C, fit to eq 5): 0.0242 s⁻¹ | kex/Kd, second-order rate constant for enzyme-catalyzed deuterium exchange ([4]; D2O, pD 7.37, 25 °C): 140 M⁻¹ s⁻¹ | kex, turnover number for deuterium exchange into enzyme-bound substrate ([4]; D2O, pD 7.64, 25 °C, fit to eq 5): 0.0324 s⁻¹ | kex/Kd, second-order rate constant for enzyme-catalyzed deuterium exchange ([4]; D2O, pD 7.64, 25 °C): 300 M⁻¹ s⁻¹ | kex for deuterium exchange ([4]; D2O, pD 8.15, 25 °C, I = 0.10 (NaCl), fit of kobsd/[E] to eq 4): 0.048 s⁻¹ | kex, turnover number for deuterium exchange into enzyme-bound substrate ([4]; D2O, pD 8.15, 25 °C, fit to eq 5): 0.0438 s⁻¹ | kex/Kd, second-order rate constant for enzyme-catalyzed deuterium exchange ([4]; D2O, pD 8.15, 25 °C): 400 M⁻¹ s⁻¹ | kex, turnover number for deuterium exchange into enzyme-bound substrate ([4]; D2O, pD 9.33, 25 °C, fit to eq 5): 0.0384 s⁻¹ | kex/Kd, second-order rate constant for enzyme-catalyzed deuterium exchange ([4]; D2O, pD 9.33, 25 °C): 200 M⁻¹ s⁻¹ | stabilization of the transition state for deuterium exchange by the 5-fluoro substituent ([4]; F-UMP vs UMP): 4.8 kcal/mol | pKE, pKa of the essential residue at the free enzyme ([4]; Saccharomyces cerevisiae): 8.5 ± 0.2 ^d | pKES, pKa of the essential residue (Lys-93) at the E•S complex ([4]; Saccharomyces cerevisiae): 7.1 ± 0.1 ^f | free energy of binding to form the Michaelis complex [4]: 6.4 kcal/mol | (Keq)enz, equilibrium constant for proton transfer from C-6 of bound nucleotide to ScOMPDC [4]: 4.1 × 10^−9 | Kd′/Kd, ratio of dissociation constants from protonated and deprotonated enzyme [4]: 25 | stabilization of enzyme-bound vinyl carbanion relative to bound nucleotide [4]: at least 13 kcal/mol | (kex)max, intrinsic first-order rate constant (turnover number) for deuterium exchange into saturating substrate bound to the deprotonated enzyme [4]: 0.041 s⁻¹ | total enzymatic rate acceleration for deuterium exchange ([4]; ratio of (kex)max/Kd and ko for 5-fluorouridine at pH 7.1): 3e+10 M⁻¹ | (Keq)aq, equilibrium constant for proton transfer from C-6 to a primary amine base of pKRNH3 = 7 in water [1]: 8 × 10^−19 | pKSD2, ionization of the phosphoryl group [5]: 6.8 | Kd [6]: 140 µM | pKa ([7]; buffered D2O): 8.37 ± 0.05 | pKa ([7]; buffered H2O): 7.84 ± 0.03

Structure (SMILES): O=C(O)c1cc(=O)[nH]c(=O)n1[C@@H]1O[C@H](COP(=O)(O)O)[C@@H](O)[C@H]1O [OMP, orotidine 5′-monophosphate]
pKa of the phosphoryl group [8]: 6.38 | ko, nonenzymatic decarboxylation [9]: 2.8e-16 s⁻¹ | kcat for decarboxylation (ScOMPDC [10]): 15 s⁻¹

Structure (SMILES): O=c1ccn([C@@H]2O[C@H](COP(=O)(O)O)[C@@H](O)[C@H]2O)c(=O)[nH]1 [UMP, uridine 5′-monophosphate]
pKa of the N-3 proton (pKNH) ([3]; H2O, 25 °C, I = 0.1): 9.7 | pKNH ([3]; ref Jencks, Regenstein, Handbook of Biochemistry and Molecular Biology 1976): 9.5 | decrease in pKa of the side chain of Lys-93 upon binding (pKE - pKES) [4]: 0.5 unit | kex, turnover number for deuterium exchange into enzyme-bound substrate ([4]; D2O, pD 7.03, 25 °C, average of kobsd[UMP]o/[E]): 1.2e-06 s⁻¹ | kex, turnover number for deuterium exchange into enzyme-bound substrate ([4]; D2O, pD 7.58, 25 °C, average of kobsd[UMP]o/[E]): 3.19e-06 s⁻¹ | kex, turnover number for deuterium exchange into enzyme-bound substrate ([4]; D2O, pD 8.13, 25 °C, average of kobsd[UMP]o/[E]): 7.53e-06 s⁻¹ | kex, turnover number for deuterium exchange into enzyme-bound substrate ([4]; D2O, pD 9.34, 25 °C, average of kobsd[UMP]o/[E]): 1.15e-05 s⁻¹ | free energy of binding to form the Michaelis complex [4]: 6.4 kcal/mol | (Keq)enz, equilibrium constant for proton transfer from C-6 of bound nucleotide to ScOMPDC [4]: 1.2 × 10^−12 | Kd′/Kd, ratio of dissociation constants from protonated and deprotonated enzyme [4]: 3 | stabilization of enzyme-bound vinyl carbanion relative to bound nucleotide [4]: at least 13 kcal/mol | hydrolysis of the 5′-phosphoryl group during exchange reaction ([4]; pD 7.0): up to 19% | hydrolysis of the glycosidic bond to give uracil during exchange reaction ([4]; pD 7.0): up to 24% | hydrolysis of the 5′-phosphoryl group to give uridine during exchange reaction ([4]; pD 7.6 – 9.3): up to 4% | (kex)max, intrinsic first-order rate constant (turnover number) for deuterium exchange into saturating substrate bound to the deprotonated enzyme [4]: 1.2e-05 s⁻¹ | (Keq)aq, equilibrium constant for proton transfer from C-6 to a primary amine base of pKRNH3 = 7 in water [1]: 2 × 10^−22 | pKa of the phosphoryl group [8]: 6.26 and 6.3

kDO, second-order rate constant for deuterioxide-ion-catalyzed deuterium exchange at C-6 [1]: 1.5e-08 M⁻¹ s⁻¹ | kHO, second-order rate constant for proton transfer from C-6 to hydroxide ion [1]: 6.3e-09 M⁻¹ s⁻¹
Structure (SMILES): O=c1ccn([C@@H]2O[C@H](CO)[C@@H](O)[C@H]2O)c(=O)[nH]1 [Uridine N-3 Anion, uridine N-3 anion]

kHO, second-order rate constant for proton transfer from C-6 to hydroxide ion [1]: 0.00016 M⁻¹ s⁻¹
Structure (SMILES): O=c1ccn([C@@H]2O[C@H](CO)[C@@H](O)[C@H]2O)c(=O)[nH]1 [Uridine, uridine]

Structure (SMILES): O=C[C@H](O)[C@H](O)[C@H](O)COP(=O)(O)O [ribose 5′-monophosphate]
pKa of the phosphoryl group [8]: 6.25
